Values joined by “and” are separate entries in the source; they are usually repeats but may differ in a detail not shown here. Equal values may be shown once. Where only a bound is given, the exact number is not on record here.

Data set [1] is described as follows: UV absorption (UV λmax and εmax) in solution. It is filed as physicochemical. From the text: There follow some examples where the UV λmax and εmax have been measured according to general methods known for the person skilled in the art by way of non-restrictive illustration of the present invention.

The melting point is the temperature of the solid-liquid transition. Regarding `C(=C\c1ccc(NC2=NC3=NC(Nc4ccc(/C=C/c5ccccc5)cc4)=NC4=NC(Nc5ccc(/C=C/c6ccccc6)cc5)=NC(=N2)N34)cc1)/c1ccccc1` [Example 28, 2,5,8-tris-((4-(E)-styrylphenyl)amino)-1,3,4,6,7,9,9b-heptaazaphenalene], the melting point is above 270 °C. In data set [1] (DMSO), the “UV λmax” value amounted to 367 nm and the εmax amounted to 163000 M⁻¹ cm⁻¹.
`O=C(c1ccccc1)c1ccc(NC2=NC3=NC(Nc4ccc(C(=O)c5ccccc5)cc4)=NC4=NC(Nc5ccc(C(=O)c6ccccc6)cc5)=NC(=N2)N34)cc1` [Example 14, 2,5,8-tris-(4-benzoylphenylamino)-1,3,4,6,7,9,9b-heptaazaphenalene] had a melting point above 270 °C. In data set [1] (DMSO), the “UV λmax” value came out at 339 nm and the εmax worked out at 112000 M⁻¹ cm⁻¹.
For `CCOC(=O)/C=C/c1ccc(NC2=NC3=NC(Nc4ccc(/C=C/C(=O)OCC)cc4)=NC4=NC(Nc5ccc(/C=C/C(=O)OCC)cc5)=NC(=N2)N34)cc1` [Example 22, 2,5,8-tris-(4-((E)-3-ethoxy-3-oxoprop-1-enyl)phenylamino)-1,3,4,6,7,9,9b-heptaazaphenalene] the same measures were above 275 °C, 359 nm and 135900 M⁻¹ cm⁻¹.
For `CCCCC(CC)COC(=O)/C=C/c1cccc(NC2=NC3=NC(Nc4cccc(/C=C/C(=O)OCC(CC)CCCC)c4)=NC4=NC(Nc5cccc(/C=C/C(=O)OCC(CC)CCCC)c5)=NC(=N2)N34)c1` (stereo not drawn) [Example 33, 2,5,8-tris-(3-((E)-3-(2-ethylhexyloxy)-3-oxoprop-1-enyl)phenylamino)-1,3,4,6,7,9,9b-heptaazafenaleno] the same measures were 206 to 210 °C, 290 nm and 126000 M⁻¹ cm⁻¹.
Take `COc1cccc(NC2=NC3=NC(Nc4cccc(OC)c4)=NC4=NC(Nc5cccc(OC)c5)=NC(=N2)N34)c1` [Example 20, 2,5,8-tris-(3-methoxyphenylamino)-1,3,4,6,7,9,9b-heptaazaphenalene]: the melting point is above 275 °C. Besides, in data set [1] (MeOH), the “UV λmax” value turned out to be 312 nm and the εmax is 62000 M⁻¹ cm⁻¹.
For `CCCCCCCCCCCCCCCCOC(=O)c1ccc(NC2=NC3=NC(Nc4ccc(C(=O)OCCCCCCCCCCCCCCCC)cc4)=NC4=NC(Nc5ccc(C(=O)OCCCCCCCCCCCCCCCC)cc5)=NC(=N2)N34)cc1` [Example 42, 2,5,8-tris-(4-(hexadecyloxycarbonyl)phenylamino)-1,3,4,6,7,9,9b-heptaazaphenalene], the melting point fell in the range of 252 to 255 °C. In addition, in data set [1] (DMSO), the “UV λmax” value amounted to 324 nm and the εmax is 125000 M⁻¹ cm⁻¹.
The molecule `COC(=O)c1ccc(NC2=NC3=NC(Nc4ccc(C(=O)OC)cc4)=NC4=NC(Nc5ccc(C(=O)OC)cc5)=NC(=N2)N34)cc1` [Example 24, 2,5,8-tris-(4-(methoxycarbonyl)phenylamino)-1,3,4,6,7,9,9b-heptaazaphenalene] returned a melting point of 288 to 291 °C. In addition, in data set [1] (DMSO), the “UV λmax” value is 329 nm and the εmax amounted to 116000 M⁻¹ cm⁻¹.
In the case of `CCCCC(CC)COC(=O)/C=C/c1ccc(NC2=NC3=NC(Nc4ccc(/C=C/C(=O)OCC(CC)CCCC)cc4)=NC4=NC(Nc5ccc(/C=C/C(=O)OCC(CC)CCCC)cc5)=NC(=N2)N34)cc1` (stereo not drawn) [Example 32, 2,5,8-tris-(4-((E)-3-(2-ethylhexyloxy)-3-oxoprop-1-enyl)phenylamino)-1,3,4,6,7,9,9b-heptaazaphenalene], the melting point lay within 213 to 216 °C. In data set [1] (DMSO), the “UV λmax” value was 358 nm and the εmax was determined as 154000 M⁻¹ cm⁻¹.
As to `c1ccc2cc(NC3=NC4=NC(Nc5ccc6ccccc6c5)=NC5=NC(Nc6ccc7ccccc7c6)=NC(=N3)N45)ccc2c1` [Example 17, 2,5,8-tris-(naphthalen-2-ylamino)-1,3,4,6,7,9,9b-heptaazaphenalene], the melting point is above 275 °C. Besides, in data set [1] (DMSO), the “UV λmax” value is 279 nm and 331 nm; the εmax was 89000 M⁻¹ cm⁻¹ and 75000 M⁻¹ cm⁻¹.

(Values after patent publication US20080193398A1, “Derivatives of Heptaazaphenalene, Methods for Obtaining Them, and Their Use as Protecting Agents Against Uv Radiation” (ISDIN, S.A., priority 2005, published 2008).)
